Data on 8 compounds can be found in patent publication US5578477A, “Identification and characterization of inhibtors of protein farnesyltransferase” (Arch Development Corporation, priority 1993, dated 1996).

Peptide text beside a SMILES is read from it.

For one test, the target named is T1, yeast FTase (Saccharomyces cerevisiae, UniProt P22007+P29703).
T1 construct: FTase was purified from SP1 cells carrying plasmids pBH28 and YEpDPR1 as described herein; made in house; host or cells: Saccharomyces cerevisiae SP1 carrying YEpDPR1 and pBH28
T1 sequence (P22007 1-431): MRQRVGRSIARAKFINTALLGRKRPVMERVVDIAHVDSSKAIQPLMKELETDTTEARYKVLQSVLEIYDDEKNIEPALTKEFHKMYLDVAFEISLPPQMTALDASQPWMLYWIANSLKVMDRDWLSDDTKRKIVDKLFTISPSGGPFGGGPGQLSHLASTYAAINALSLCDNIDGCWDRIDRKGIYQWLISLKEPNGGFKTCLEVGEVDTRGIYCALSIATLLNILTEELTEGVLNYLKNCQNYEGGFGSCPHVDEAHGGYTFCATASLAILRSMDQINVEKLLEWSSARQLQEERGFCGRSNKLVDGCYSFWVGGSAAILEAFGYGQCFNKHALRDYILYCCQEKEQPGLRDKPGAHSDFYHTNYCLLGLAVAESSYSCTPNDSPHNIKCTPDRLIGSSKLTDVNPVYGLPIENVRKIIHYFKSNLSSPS
T1 sequence (P29703 1-316): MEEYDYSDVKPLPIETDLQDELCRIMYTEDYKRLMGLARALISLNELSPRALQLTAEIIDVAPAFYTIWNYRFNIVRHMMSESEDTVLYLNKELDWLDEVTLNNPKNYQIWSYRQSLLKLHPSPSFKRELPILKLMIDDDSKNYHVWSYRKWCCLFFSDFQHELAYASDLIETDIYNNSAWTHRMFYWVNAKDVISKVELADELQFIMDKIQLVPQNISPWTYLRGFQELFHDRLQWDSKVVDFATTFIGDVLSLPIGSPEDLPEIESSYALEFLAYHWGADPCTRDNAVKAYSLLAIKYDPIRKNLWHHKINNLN
The test can be described thus: Prenyltransferase (FTase) assay with [3H]Fpp and GST-CIIS, purified yeast FTase. Type of test: biochemical. The conditions noted are these: for inhibition of FTase activity by salts: 100 mM salt. As to the method: Prenyltransferase assays were performed essentially as described in Goodman et al., 1990; Finegold et al., 1991. Briefly, the reaction mixture (20 μl) contained 50 mM potassium phosphate, pH 7.4 (or 50 mM Tris/HCl, pH 8.0), 10 mMMgCl2, 5 mM DTT, 5 μM ZnCl2, 0.8-1.12 μM [^3 H] farnesyl pyrophosphate (Fpp) (20 Ci/mmol; New England Nuclear) or [^3 H] geranylgeranyl pyrophosphate (GGpp) (20 Ci/mmol; New England Nuclear, Boston, Mass.), 19 μg of GST-CIIS or 30 μg of GST-CIIL protein and enzymes. Incubation was carried out at 37° C., and the radioactivity incorporated was determined by spotting the reaction mixture onto a filter paper, treating with 10% trichloroacetic acid, followed by ethanol and acetone washing.
Reaction mixture (20 μl) for results shown in open squares contained 1.12 μM [^3 H] Fpp, 4.38 ng FTase, 19 μM GST-CIIS, 0.1 mM EDTA and the indicated concentration of MgCl2. Reaction mixtures (20 μl) for results shown in closed diamond contained 0.1 mM ZnCl2 in addition to the above. Incubation was carried out for 10 minutes at 37° C. and radioactivity incorporated was determined as described herein.
Substrate specificity of yeast FTase was investigated by comparing incorporation of Fpp or GGpp into two different substrate proteins, GST-CIIS (.quadrature.) and GST-CIIL (.circle-solid.). […] The reaction mixture (20 μl) contained 1.12 μM [^3 H] Fpp, 20 ng FTase, and the indicated concentrations of either GST-CIIS or GST-CIIL1 protein. Incubations were carried out for 10 minutes at 37° C. and the radioactivity incorporated was measured as described herein.
Dilution of the peptides was made in 10 mM DTT. Incubation was carried out for 10 minutes at 37° C. and the radioactivity incorporated was determined as described herein.

In the next test the target is T2, PGGT I (Bos taurus, UniProt P29702+Q5EAD5).
T2 construct: PGGT purified from bovine brain was a gift of Drs; M. Gelb and K. Yokoyama; tissue gift of Drs; M. Gelb and K. Yokoyama (Univ. of Washington); host or cells: bovine brain
The test can be described thus: PGGT assay using GST-CIIL protein and [3H]GGpp. Type of test: biochemical, bovine. Here is the method: (§1) Farnesyltransferase assay. FTase from S. cerevisiae was purified from yeast cells overexpressing DPR1 and RAM2 as described herein. Rat brain FTase was partially purified by the method described by Reiss et al. PGGT purified from bovine brain was a gift of Drs. M. Gelb and K. Yokoyama (Univ. of Washington). FTase assays were carried out using RAS2CT1 protein and [^3 H]Fpp according to the method described herein except that Tris-HCl(pH8) was used instead of phosphate buffer. PGGT assays were carried out using GST-CIIL protein and [^3 H]GGpp as described herein except that Tris-HCl(pH7.4) was used instead of phosphate buffer. […] Incubation was carried out at 37° C.
FIG. 6B compares the effect of UCF1-C on PGGT I and PFT.

For another test, the target named is T3, yeast PFT (Saccharomyces cerevisiae, UniProt P22007+P29703).
T3 construct: FTase was purified from SP1 cells carrying plasmids pBH28 and YEpDPR1 as described herein; made in house; host or cells: Saccharomyces cerevisiae SP1 carrying YEpDPR1 and pBH28
T3 sequence (P22007 1-431): T1 sequence (P22007 1-431)
T3 sequence (P29703 1-316): T1 sequence (P29703 1-316)
The test can be described thus: Farnesyltransferase assay using RAS2CT1 protein and [3H]Fpp, without dithiothreitol. Type of test: biochemical, S. cerevisiae. Here is the method: as §1
Inhibition of Farnesyltransferase.
To investigate the mechanism of inhibition by UCF1-C, kinetic analyses were carried out. […] The same Km value was observed when the Linewaver-Burke plot was analyzed under different ras and UCF1-C concentrations (.quadrature.=0 μM, .tangle-solidup.=10 μM, and .box-solid.=20 μM) in the presence of a constant concentration of Fpp.

With `[Cl-].[K+]` [KCl], the “inhibition of FTase activity by salts” value at yeast FTase is on record as “Approximately 50%”. As to EHWSYGLRPG [LHRH], the “inhibition of FTase activity by peptide (in words)” value with yeast FTase (control peptides of the same size, unrelated sequences) is recorded as “little inhibition”. With `CCCC[C@@H](C)/C=C(C)/C=C(\C)C(=O)NC1=C[C@@](O)(/C=C/C=C/C=C/C(=O)NC2=C(O)CCC2=O)[C@@H]2O[C@@H]2C1=O` [UCF1-C], the “PGGT I activity still detectable” value at PGGT I (1 mM concentration) is given as “approximately 30%”. The IC50 at PGGT I (GST-CIIL, [3H]GGpp, Tris-HCl pH 7.4, read-out: IC50 for PGGT I inhibition) stood at 180 µM; at yeast PFT (RAS2CT1, [3H]Fpp, Tris-HCl pH 8, no dithiothreitol, 37° C.) it was 5 µM. Further, the “mechanism of inhibition with respect to Fpp” value on yeast PFT (Lineweaver-Burk, changes Km for Fpp, not Vmax) is “competitive inhibitor”. At yeast PFT (Lineweaver-Burk, same Km for RAS2, constant Fpp), the “mechanism of inhibition with respect to ras protein” value was “non-competitive inhibitor”. At yeast PFT (secondary plot of slopes against UCF1-C concentration, Fpp varied, constant ras), this compound returned an inhibition constant (Ki) of 1.2 µM. Regarding `[Cl-].[Na+]` [NaCl], the “inhibition of FTase activity by salts” value at yeast FTase was “Approximately 50%”. In turn, `CSCC[C@H](NC(=O)[C@H](CC(C)C)NC(=O)[C@@H](NC(=O)[C@H](CS)NC(=O)[C@H](CS)NC(=O)[C@@H](NC(=O)[C@H](CO)NC(=O)[C@H](CC(N)=O)NC(=O)[C@H](CO)NC(=O)[C@@H](N)CC(N)=O)C(C)C)[C@@H](C)O)C(=O)O` [MG13, NSNSVCCTLM] (H-NSNSVCCTLM-OH) yielded an IC50 on yeast FTase of 10 µM. For the compound `O=C(O)CN(CCN(CC(=O)O)CC(=O)O)CC(=O)O` [EDTA], on yeast FTase, the “effect of EDTA addition on FTase activity” value is “dramatic inhibition”.

For the compound `CC(C)=CCC/C(C)=C/CC/C(C)=C/COP(=O)(O)OP(=O)(O)O` [Fpp, farnesyl pyrophosphate], on yeast FTase (secondary plots, substrates Fpp and GST-CIIS varied), the Km came out at 8.1 µM. `[Cl-].[Li+]` [LiCl]: the “inhibition of FTase activity by salts” value at yeast FTase was “Approximately 50%”.

The IC50 is the concentration needed to halve the response being measured. Usually Ki stands for a dissociation constant, usually derived from enzyme kinetics or from competition with a known ligand. Read a low Ki as a stronger hold on the target. Usually Km stands for the concentration of substrate that gives half-maximal velocity.
